Test results published in patent US5399543A, “3-[4-(phenylmethoxy)phenyl]-1-substituted-6-haloalkyl-uracil herbicides” (FMC Corporation, priority 1993, dated 1995).

Experiments:
Morningglory [1] = assay: Postemergence herbicidal activity, morningglory; assay type: in vivo, Ipomea lacunosa or Ipomea hederacea; details: Ipomoea, post-emergence, 0.3 kg/ha, after 17-21 days, read-out: Postemergence herbicidal activity (% control), Morningglory
Description: (§1) The 3-[4-(phenylmethoxy)phenyl]-1-substituted-6-haloalkyluracil herbicides of this invention were tested for pre- and postemergence herbicidal activity using a variety of crops and weeds. The test plants included soybean (Glycine max var. Williams), field corn (Zea mays var. Agway 425X), wheat (Triticum aestivum var. Wheaton), morningglory (Ipomea lacunosa or Ipomea hederacea), velvetleaf (Abutilon theophrasti), green foxtail (Setaria viridis), Johnsongrass (Sorghum halepense), blackgrass (Aloepecurus myosuroides), common chickweed (Stellaria media), and common cocklebur (Xanthium pensylvanicum).
(§2) For preemergence testing, two disposable fiber flats (8 cm×15 cm×25 cm) for each rate of application of each candidate herbicide were filled to an approximate depth of 6.5 cm with steam-sterilized sandy loam soil. The soil was leveled and impressed with a template to provide five evenly spaced furrows 13 cm long and 0.5 cm deep in each flat. Seeds of soybean, wheat, corn, green foxtail, and johnsongrass were planted in the furrows of the first flat, and seeds of velvetleaf, morningglory, common chickweed, cocklebur, and blackgrass were planted in the furrows of the second flat. The five-row template was employed to firmly press the seeds into place. A topping soil of equal portions of sand and sandy loam soil was placed uniformly on top of each flat to a depth of approximately 0.5 cm. Flats for postemergence testing were prepared in the same manner except that they were planted 8-12 days prior to the preemergence flats and were placed in a greenhouse and watered, thus allowing the seeds to germinate and the foliage to develop.
(§3) In both pre- and postemergence tests, a stock solution of the candidate herbicide was prepared by dissolving 0.27 g of the compound in 20 mL of water/acetone (50/50) containing 0.5% v/v sorbitan monolaurate. For an application rate of 3000 g/ha of herbicide a 10 mL portion of the stock solution was diluted with water/acetone (50/50) to 45 mL.
(§4) The preemergence flats were initially subjected to a light water spray. The four flats were placed two by two along a conveyor belt (i.e., the two preemergence followed by the two postemergence flats). The conveyor belt fed under a spray nozzle mounted about ten inches above the postemergent foliage. The preemergent flats were elevated on the belt so that the soil surface was at the same level below the spray nozzle as the foliage canopy of the postemergent plants. The spray of herbicidal solution was commenced and once stabilized, the flats were passed under the spray at a speed to receive a coverage equivalent of 1000 L/ha. At this coverage the application rates are those shown in the above table for the individual herbicidal solutions. The preemergence flats were watered immediately thereafter, placed in the greenhouse and watered regularly at the soil surface. The postemergence flats were immediately placed in the greenhouse and not watered until 24 hours after treatment with the test solution. Thereafter they were regularly watered at ground level. After 17-21 days the plants were examined and the phytotoxicity data were recorded.
(§5) Herbicidal activity data at selected application rates are given for various compounds of this invention in Table 2 and Table 3. The test compounds are identified by numbers which correspond to those in Table 1.
(§6) Phytotoxicity data were taken as percent control. Percent control was determined by a method similar to the 0 to 100 rating system disclosed in "Research Methods in Weed Science," 2nd ed., B. Truelove, Ed.; Southern Weed Science Society; Auburn University, Auburn, Ala., 1977.

Blackgrass [2] = assay: Postemergence herbicidal activity, blackgrass; assay type: in vivo, Aloepecurus myosuroides; details: Alopecurus myosuroides, post-emergence, 0.3 kg/ha, after 17-21 days, read-out: Postemergence herbicidal activity (% control), Blackgrass
Description: as §1, §2, §3, §4, §5, §6

Green foxtail [3] = assay: Postemergence herbicidal activity, green foxtail; assay type: in vivo; details: Setaria viridis, post-emergence, 0.3 kg/ha, after 17-21 days, read-out: Postemergence herbicidal activity (% control), Green foxtail
Description: as §1, §2, §3, §4, §5, §6

Chickweed [4] = assay: Preemergence herbicidal activity, chickweed; assay type: in vivo; details: Stellaria media, pre-emergence, 0.3 kg/ha, after 17-21 days, read-out: Preemergence herbicidal activity (% control), Chickweed
Description: as §1, §2, §3, §4, §5, §6

Morningglory [5] = assay: Preemergence herbicidal activity, morningglory; assay type: in vivo, Ipomea lacunosa or Ipomea hederacea; details: Ipomoea, pre-emergence, 0.3 kg/ha, after 17-21 days, read-out: Preemergence herbicidal activity (% control), Morningglory
Description: as §1, §2, §3, §4, §5, §6

Johnsongrass [6] = assay: Postemergence herbicidal activity, johnsongrass; assay type: in vivo; details: Sorghum halepense, post-emergence, 0.3 kg/ha, after 17-21 days, read-out: Postemergence herbicidal activity (% control), Johnsongrass
Description: as §1, §2, §3, §4, §5, §6

Corn [7] = assay: Postemergence herbicidal activity, corn; assay type: in vivo, Zea mays var. Agway 425X; details: Zea mays, post-emergence, 0.3 kg/ha, after 17-21 days, read-out: Postemergence herbicidal activity (% control), Corn
Description: as §1, §2, §3, §4, §5, §6

Green foxtail [8] = assay: Preemergence herbicidal activity, green foxtail; assay type: in vivo; details: Setaria viridis, pre-emergence, 0.3 kg/ha, after 17-21 days, read-out: Preemergence herbicidal activity (% control), Green foxtail
Description: as §1, §2, §3, §4, §5, §6

Soybean [9] = assay: Preemergence herbicidal activity, soybean; assay type: in vivo, Glycine max var. Williams; details: Glycine max, pre-emergence, 0.3 kg/ha, after 17-21 days, read-out: Preemergence herbicidal activity (% control), Soybean
Description: as §1, §2, §3, §4, §5, §6

Cocklebur [10] = assay: Postemergence herbicidal activity, cocklebur; assay type: in vivo, Xanthium pensylvanicum; details: Xanthium strumarium, post-emergence, 0.3 kg/ha, after 17-21 days, read-out: Postemergence herbicidal activity (% control), Cocklebur
Description: as §1, §2, §3, §4, §5, §6

Chickweed [11] = assay: Postemergence herbicidal activity, chickweed; assay type: in vivo; details: Stellaria media, post-emergence, 0.3 kg/ha, after 17-21 days, read-out: Postemergence herbicidal activity (% control), Chickweed
Description: as §1, §2, §3, §4, §5, §6

Velvetleaf [12] = assay: Preemergence herbicidal activity, velvetleaf; assay type: in vivo; details: Abutilon theophrasti, pre-emergence, 0.3 kg/ha, after 17-21 days, read-out: Preemergence herbicidal activity (% control), Velvetleaf
Description: as §1, §2, §3, §4, §5, §6

Johnsongrass [13] = assay: Preemergence herbicidal activity, johnsongrass; assay type: in vivo; details: Sorghum halepense, pre-emergence, 0.3 kg/ha, after 17-21 days, read-out: Preemergence herbicidal activity (% control), Johnsongrass
Description: as §1, §2, §3, §4, §5, §6

Velvetleaf [14] = assay: Postemergence herbicidal activity, velvetleaf; assay type: in vivo; details: Abutilon theophrasti, post-emergence, 0.3 kg/ha, after 17-21 days, read-out: Postemergence herbicidal activity (% control), Velvetleaf
Description: as §1, §2, §3, §4, §5, §6

Soybean [15] = assay: Postemergence herbicidal activity, soybean; assay type: in vivo, Glycine max var. Williams; details: Glycine max, post-emergence, 0.3 kg/ha, after 17-21 days, read-out: Postemergence herbicidal activity (% control), Soybean
Description: as §1, §2, §3, §4, §5, §6

Wheat [16] = assay: Preemergence herbicidal activity, wheat; assay type: in vivo, Triticum aestivum var. Wheaton; details: Triticum aestivum, pre-emergence, 0.3 kg/ha, after 17-21 days, read-out: Preemergence herbicidal activity (% control), Wheat
Description: as §1, §2, §3, §4, §5, §6

Blackgrass [17] = assay: Preemergence herbicidal activity, blackgrass; assay type: in vivo, Aloepecurus myosuroides; details: Alopecurus myosuroides, pre-emergence, 0.3 kg/ha, after 17-21 days, read-out: Preemergence herbicidal activity (% control), Blackgrass
Description: as §1, §2, §3, §4, §5, §6

Wheat [18] = assay: Postemergence herbicidal activity, wheat; assay type: in vivo, Triticum aestivum var. Wheaton; details: Triticum aestivum, post-emergence, 0.3 kg/ha, after 17-21 days, read-out: Postemergence herbicidal activity (% control), Wheat
Description: as §1, §2, §3, §4, §5, §6

Corn [19] = assay: Preemergence herbicidal activity, corn; assay type: in vivo, Zea mays var. Agway 425X; details: Zea mays, pre-emergence, 0.3 kg/ha, after 17-21 days, read-out: Preemergence herbicidal activity (% control), Corn
Description: as §1, §2, §3, §4, §5, §6

Cocklebur [20] = assay: Preemergence herbicidal activity, cocklebur; assay type: in vivo, Xanthium pensylvanicum; details: Xanthium strumarium, pre-emergence, 0.3 kg/ha, after 17-21 days, read-out: Preemergence herbicidal activity (% control), Cocklebur
Description: as §1, §2, §3, §4, §5, §6

Row | SMILES | activity at 300 g/ha (Morningglory [1]) [%] | activity at 300 g/ha (Blackgrass [2]) [%] | activity at 300 g/ha (Green foxtail [3]) [%] | activity at 300 g/ha (Chickweed [4]) [%] | activity at 300 g/ha (Morningglory [5]) [%] | activity at 300 g/ha (Johnsongrass [6]) [%] | activity at 300 g/ha (Corn [7]) [%] | activity at 300 g/ha (Green foxtail [8]) [%] | activity at 300 g/ha (Soybean [9]) [%] | activity at 300 g/ha (Cocklebur [10]) [%] | activity at 300 g/ha (Chickweed [11]) [%] | activity at 300 g/ha (Velvetleaf [12]) [%] | activity at 300 g/ha (Johnsongrass [13]) [%] | activity at 300 g/ha (Velvetleaf [14]) [%] | activity at 300 g/ha (Soybean [15]) [%] | activity at 300 g/ha (Wheat [16]) [%] | activity at 300 g/ha (Blackgrass [17]) [%] | activity at 300 g/ha (Wheat [18]) [%] | activity at 300 g/ha (Corn [19]) [%] | activity at 300 g/ha (Cocklebur [20]) [%]
1 | Cn1c(C(F)(F)F)cc(=O)n(-c2ccc(OCc3c(Cl)cccc3Cl)cc2)c1=O [Compound 7] | 10 | 0 | 90 | 0 | 0 | 0 | 0 | 0 | 0 | 0 | 0 | 0 | 0 | 0 | 0 | 0 | 0 | 0 | 0 | 0
2 | Cn1c(C(F)(F)F)cc(=O)n(-c2ccc(OCc3ccccc3)cc2)c1=O [Compound 1] | 95 | 10 | 90 | 90 | 100 | 60 | 30 | 100 | 75 | 80 | 95 | 100 | 75 | 100 | 80 | 10 | 10 | 0 | 60 | 75
3 | Cn1c(C(F)(F)F)cc(=O)n(-c2ccc(OCc3ccc(Cl)c(Cl)c3)cc2)c1=O [Compound 41] | 100 | 0 | 45 | 95 | 80 | 35 | 25 | 95 | 40 | 100 | 85 | 100 | 20 | 100 | 85 | 0 | 20 | 0 | 0 | 20
